Measurements as given in PMC4789278, “Pharmacological inhibition of LSD1 for the treatment of MLL-rearranged leukemia” (Journal of Hematology & Oncology, 2016).
Entries after “also recorded” stand apart in the source; their conditions may differ.

Legend:
U937 leukemia cells = assay: Antiproliferation assay (XTT), U937; assay type: cell-based; settings: Homo sapiens, U-937, 360 h; 15-day treatment; non-MLL leukemia cells; read-out: U937 EC50 (antiproliferative)
Protocol: (§1) We next examined the spectrum of antitumor activity for compounds 1–4. These compounds were incubated with a panel of six human leukemia and solid tumor cell lines, including two MLL-rearranged leukemia cells MV4-11 and Molm-13 containing fusion oncogenes MLL-AF4 and -AF9, respectively. […] Also included in the studies are breast cancer MCF-7 and prostate cancer LNCaP cells. […]
(§2) Proliferation inhibition assay for suspension leukemia cells was performed using an XTT assay kit (Roche) with our previously described method. Proliferation inhibition assay for solid tumor cell lines MCF-7 and LNCaP was performed using our previous described MTT assay. The antiproliferation EC50 values were determined by Prism, and the reported results were the mean values of at least three independent experiments.

MV4-11 cells [1] = assay: Cell migration assay (transwell); assay type: cell-based, human; settings: treatment for 4 days
Protocol: Importantly, only these stem-like cancer cells can form new tumors when transplanted into a new host, while the other non-stem cancer cells fail to do so. These stem-like cancer cells are more drug resistant and believed to be responsible for tumor metastasis and relapse. […] CD14 and CD11b are two cell surface proteins characteristic to differentiated macrophages/monocytes. […] Similarly, incubation with 2 led to considerably more CD11b^+ cells (Fig. 3b).
Cell migration assay was performed in a 24-well transwell plate with 8-μm polyethylene terephthalate membrane filters (Falcon cell culture insert; Becton-Dickinson) separating the lower from the upper culture chambers, according to the manufacturer’s instructions. […] Triplicate samples of 10^6 cells/well were plated in the upper chamber containing serum-free RPMI-1640. RPMI-1640 supplemented with 10 % FBS in the bottom chamber was used to attract cells to move through the filter. Cells were allowed to incubate at 37 °C for 4 h, after which the cells that had migrated through the pores were harvested in the bottom chamber and counted. Results are presented as means ± s.d.

MV4-11 cells [2] = assay: FACS-based Annexin-V apoptosis assay; assay type: cell-based, human
Protocol: For Annexin V apoptosis assay, 10^5 cells/well were incubated with increasing concentrations of a compound for 7 or 14 days. Apoptosis was determined using the FITC Annexin V Apoptosis Detection Kit I (BD Bioscience) using the manufacturer’s protocol. For other FACS assays, cells were labeled with fluorochrome-conjugated monoclonal antibodies against human CD14, CD11b, CD45, or CD33 (BD Biosciences) according to the manufacturer’s recommendation. Cells were analyzed using a FACS Calibur (BD Biosciences/Applied Biosystems), and data were processed using the program Flowjo (version7.6.5).

[3] = tested on: prostate cancer LNCaP cells; assay: Antiproliferation assay (MTT), LNCaP; assay type: cell-based; settings: Homo sapiens, 360 h, 15-day treatment, read-out: LNCaP EC50 (antiproliferative)
Protocol: as §1, §2

NB4 leukemia cells = assay: Antiproliferation assay (XTT), NB4; assay type: cell-based; settings: Homo sapiens, 360 h; 15-day treatment; non-MLL leukemia cells; read-out: NB4 EC50 (antiproliferative)
Protocol: as §1, §2

recombinant human LSD1 = target: T1, recombinant human LSD1 (Homo sapiens, UniProt O60341); assay: LSD1 enzyme inhibition assay (HRP/Amplex red); assay type: biochemical
T1 construct: Human LSD1 catalytic domain (172-833) was cloned; made in house; host or cells: E. coli BL21-CodonPlus (Agilent)
Protocol: The LSD1 inhibition assay was performed with the reaction rate (i.e., amount of the product H2O2, Additional file 1: Figure S2) being quantitatively determined by adding horseradish peroxidase (HRP) and a HRP fluorescence substrate Amplex red.
Human LSD1 catalytic domain (172-833) was cloned and inserted into pGEX-KG vector. The correctness of insert was verified by sequencing. BL21-CodonPlus strain (Agilent) was transformed with the pGEX-KG-LSD1 plasmid and cultured at 37 °C in LB medium containing ampicillin (50 μg/mL) and chloramphenicol (34 μg/mL). Upon reaching an optical density of ~0.9 at 600 nm, LSD1 expression was induced by adding 0.2 mM isopropylthiogalactoside at 25 °C for 20 h. Cells were harvested, lysed, and centrifuged at 20,000 rpm for 20 min, and the supernatant was collected and subjected to an affinity column chromatography using the glutathione sepharose resin.
The inhibition assay for the recombinant LSD1 was performed using a published protocol, with the reaction rate (i.e., amount of the product H2O2) being quantitatively determined by adding HRP and a HRP fluorescence substrate Amplex red. […] The total volume of the reaction mixture is 60 μL. After 20 min, 60-μL solution containing HRP (0.01 unit) and Amplex red (80 μM) was added and the fluorescence of each well was determined using a Beckman DTX-880 microplate reader (excitation at 535 and emission at 595 nm). Data were imported into Prism 5.0 (GraphPad), and the IC50 values were calculated by using the sigmoidal dose response curve fitting in the software. The reported IC50s were the mean values of at least three independent experiments.

[4] = parameters: method as in PMID 22754608; settings: mice; cited from earlier work
Molm-13 leukemia cells = assay: Antiproliferation assay (XTT), Molm-13; assay type: cell-based; settings: Homo sapiens, MOLM-13, 360 h; 15-day treatment; MLL-rearranged leukemia; read-out: Molm-13 EC50 (antiproliferative)
Protocol: (§3) These compounds were incubated with a panel of six human leukemia and solid tumor cell lines, including two MLL-rearranged leukemia cells MV4-11 and Molm-13 containing fusion oncogenes MLL-AF4 and -AF9, respectively. […] Also included in the studies are breast cancer MCF-7 and prostate cancer LNCaP cells.
as §2

MV4-11 leukemia cells = assay: Antiproliferation assay (XTT), MV4-11; assay type: cell-based; settings: Homo sapiens, MV4-11, 360 h; 15-day treatment; MLL-rearranged leukemia; read-out: MV4-11 EC50 (antiproliferative)
Protocol: Next, these three compounds were tested for their cellular activity against proliferation of MV4-11 leukemia cells bearing MLL-AF4 fusion oncogene.
as §3, §2

[5] = Toxicity in mice (weight, blood test); assay type: in vivo
Description: Continuous infusion of 1 using a subcutaneously implanted osmotic pump was used for in vivo studies to avoid the unfavorable pharmacokinetics because this route may provide a stable plasma drug concentration.

[6] = tested on: breast cancer MCF-7 cells; assay: Antiproliferation assay (MTT), MCF-7; assay type: cell-based; settings: Homo sapiens, MCF7, 360 h, 15-day treatment, read-out: MCF-7 EC50 (antiproliferative)
Protocol: as §3, §2

IC50 (recombinant human LSD1)	Structure (SMILES)	EC50 (U937 leukemia cells)	ability of MV4-11 cells to migrate through a membrane with 8-μm pores (MV4-11 cells [1])	apoptosis of MV4-11 cells (MV4-11 cells [2]; 0.1 μM, 7 days)	apoptosis of MV4-11 cells (MV4-11 cells [2]; 0.1 μM, 14 days)	apoptosis of MV4-11 cells (MV4-11 cells [2]; 1 μM, 7 days)	apoptosis of MV4-11 cells (MV4-11 cells [2]; 1 μM, 14 days)	EC50 [3]	EC50 (NB4 leukemia cells)	half-life in the plasma [4]	apoptosis of MV4-11 cells (MV4-11 cells [2]; 30 nM, day 7)	apoptosis of MV4-11 cells (MV4-11 cells [2]; 30 nM, day 14)	apoptosis of MV4-11 cells (MV4-11 cells [2]; 300 nM, day 7)	apoptosis of MV4-11 cells (MV4-11 cells [2]; 300 nM, day 14)	EC50 (Molm-13 leukemia cells)	EC50 (MV4-11 leukemia cells)	weight losses and visible signs of toxicity ([5]; 2.5 and 5 mg/kg/day for 28 days, osmotic pump)	blood cell counts and hemoglobin vs control ([5]; blood test on day 28)	EC50 [6]
0.077 µM	CN1CCN(C(=O)CNC2CC2c2ccc(-c3ccc(F)nc3)cc2)CC1 (stereo not shown) [Compound 2]	34.6 µM	reduced ability for MV4-11 cells to migrate	11%	13%	45%	49%	10 µM	18.9 µM										
	CN1CCN(C(=O)CNC2CC2c2ccc(OCc3ccccc3)cc2)CC1 (stereo not shown) [Compound 1]	18.9 µM						3.7 µM	19.4 µM	~ 1 h	12%	20%	13%	26%	0.096 µM	0.01 µM	did not cause weight losses as well as any visible signs of toxicity	no significant differences; also recorded: no significant changes in blood cell counts	1.6 µM
